Measurements taken from US6127136A, “Detection of dioxin-like compounds by detection of transformed Ah receptor/ARNT complex” (Paracelsian, Inc., priority 1996, dated 2000).

How the values were obtained:
[1] = test system: transformed AhR/ARNT complex; experiment: size exclusion of biotin-DRE/AhR/ARNT/anti-ARNT complex followed by capture on neutravidin ELISA plates; type: biochemical, guinea pig (hepatic cytosol); details: FIG. 5, OD at 405 nm
Protocol: Size-exclusion of biotin-DRE/AhR/ARNT/anti-ARNT complex followed by capture on neutravidin ELISA plates and detection with anti-rabbit/alkaline phosphatase conjugate.
Diethanolamine buffer was prepared by dissolving 0.4 g Magnesium chloride hexahydrate, 0.8 g sodium azide, 338 mL diethanolamine in 2.5 L deionized water, adjusting pH to 9.8 with concentrated HCl, and adjusting volume to 4 liters.
PNPP stock was prepared fresh by dissoving two 15 mg tablets of para-nitro phenyl phosphate (Sigma, St. Louis, Mo.) in 20 mL diethanolamine buffer.
The same size exclusion column operating conditions were used as described above, except the DRE used was B-ERD oligo (SEQ. ID. #3) and DRE-D oligo (SEQ. ID #1)hybridized as described in methods. […]
Samples were incubated for 2 hours at room temperature as described above to achieve transformation/binding events then put on ice. […] The plate was incubated 2 hours, washed 3 times with 300 uL per well PBS plus 0.02% Tween 20, incubated 1 hour with 200 uL per well 1:1000 anti-rabbit/alkaline phosphatase conjugate in PBS plus 0.02% Tween 20 and 0.1% bovine serum albumin, washed 3 times with 300 uL per well PBS plus Tween 20 and developed 2 hours with 200 uL per well PnPP stock, and the optical density read at 405 nm in an ELISA spectrophotometer.

[2] = molecular target: transformed Ah receptor/ARNT complex (Cavia porcellus, UniProt Q6J287); experiment: Ah-ELISA dose response using an amplified detection system; type: biochemical, guinea pig (hepatic cytosol); set-up: from tissue; host or cells: hepatic cytosol of male Hartley guinea pigs (animals from Cornell Research Animal Resources); details: for Average Optical Density: 490 nm, amplified, 28 minutes
Protocol: The reagents and ELISA plate were prepared as described in Example 9 with an amplified detection system. The TCDD concentration was varied tested at 0, 0.016, 0.031, 0.063, 0.125, 0.25, 0.5, 1.0, 2.0, and 4.0 nM.
The amplified detection system used was the alkaline phosphatase/NADP system published by Johannson et al. (J IMM Meth 87: 7-11, 1986). This system is sold as a kit under the trademark Ampak™ by DAKO.
2x enzyme stock was made by dissolving 8 mg alcohol dehydrogenase, 1.4 mg Diaphorase, 133 mg bovine serum albumin in 40 ml AMP buffer (2.3 g 85% HPLC grade phosphoric acid in a total volume of 960 ml water, pH adjusted to 7.2 with 6N NaOH, and 40 ml of ethanol was added to make 1 L). 2x INT stock was made by dissolving 50 mg INT Violet dye in 50 mL AMP buffer.
After washing the plates, 100 μl of NADP stock (0.837 mg in 10 ml of AP buffer (diethanolamine 50 mM, 1 mM MgCl2, 0.1 mM ZnCl2, 15 mM NaN3, pH 9.5)) was added and allowed to incubate at room temperature for 30 minutes. Sensitivity can be increased by increasing amount of NADP or time of incubation. The 2x enzyme stock and 2x INT stock were mixed and 200 μl of the mixture was added per well. The OD was read at 490 nm (usually read at 1 minute intervals for up to 30 minutes). The results are shown below at 28 minutes.

Sequence of transformed Ah receptor/ARNT complex (Q6J287 1-846): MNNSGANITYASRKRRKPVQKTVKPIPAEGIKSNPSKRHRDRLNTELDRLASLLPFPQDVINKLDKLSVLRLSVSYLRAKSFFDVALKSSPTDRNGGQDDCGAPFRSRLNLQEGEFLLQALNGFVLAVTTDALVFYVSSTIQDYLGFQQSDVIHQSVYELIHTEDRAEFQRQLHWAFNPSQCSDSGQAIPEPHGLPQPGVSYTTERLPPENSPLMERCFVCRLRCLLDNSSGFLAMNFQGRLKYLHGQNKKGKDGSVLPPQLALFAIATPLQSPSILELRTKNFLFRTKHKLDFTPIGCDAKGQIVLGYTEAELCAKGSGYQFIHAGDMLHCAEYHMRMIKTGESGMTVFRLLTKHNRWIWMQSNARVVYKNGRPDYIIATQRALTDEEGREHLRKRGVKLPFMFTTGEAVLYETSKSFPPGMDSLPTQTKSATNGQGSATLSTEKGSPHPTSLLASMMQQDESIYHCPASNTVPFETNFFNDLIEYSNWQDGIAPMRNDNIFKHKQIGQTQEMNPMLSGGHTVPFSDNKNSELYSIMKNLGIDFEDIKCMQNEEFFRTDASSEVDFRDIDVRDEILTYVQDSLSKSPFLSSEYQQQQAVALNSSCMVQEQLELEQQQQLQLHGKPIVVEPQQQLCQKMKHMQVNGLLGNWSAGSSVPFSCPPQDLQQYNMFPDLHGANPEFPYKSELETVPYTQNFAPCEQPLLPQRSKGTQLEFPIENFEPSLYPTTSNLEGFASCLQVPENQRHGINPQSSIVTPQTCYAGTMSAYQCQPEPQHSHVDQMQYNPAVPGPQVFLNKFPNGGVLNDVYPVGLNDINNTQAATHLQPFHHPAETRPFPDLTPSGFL
Sequence of transformed Ah receptor/ARNT complex (Q0WXX3 1-790 partner): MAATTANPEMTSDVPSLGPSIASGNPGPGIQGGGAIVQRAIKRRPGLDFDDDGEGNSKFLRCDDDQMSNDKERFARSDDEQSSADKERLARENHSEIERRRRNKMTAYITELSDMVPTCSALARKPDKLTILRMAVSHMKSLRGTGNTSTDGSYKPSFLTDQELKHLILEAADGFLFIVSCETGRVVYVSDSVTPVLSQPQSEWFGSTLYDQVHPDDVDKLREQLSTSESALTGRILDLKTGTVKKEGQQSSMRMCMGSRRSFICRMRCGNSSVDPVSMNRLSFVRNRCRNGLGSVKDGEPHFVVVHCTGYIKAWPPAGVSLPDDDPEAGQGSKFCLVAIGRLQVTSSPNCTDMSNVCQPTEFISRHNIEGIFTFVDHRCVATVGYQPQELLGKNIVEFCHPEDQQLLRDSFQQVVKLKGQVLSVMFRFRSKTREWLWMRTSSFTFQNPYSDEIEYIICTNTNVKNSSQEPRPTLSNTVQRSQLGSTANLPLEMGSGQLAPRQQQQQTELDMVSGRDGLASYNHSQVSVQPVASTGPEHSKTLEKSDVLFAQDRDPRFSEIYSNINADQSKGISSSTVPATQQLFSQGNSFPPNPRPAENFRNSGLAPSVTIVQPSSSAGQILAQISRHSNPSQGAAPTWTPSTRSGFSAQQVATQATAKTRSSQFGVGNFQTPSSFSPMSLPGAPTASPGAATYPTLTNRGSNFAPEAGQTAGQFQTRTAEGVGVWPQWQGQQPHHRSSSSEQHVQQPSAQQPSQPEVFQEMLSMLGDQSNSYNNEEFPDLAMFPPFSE

Clc1cc2c(cc1Cl)Oc1cc(Cl)c(Cl)cc1O2 [TCDD, 2,3,7,8-tetrachlorodibenzo-p-dioxin]
TCDD-dependent peak, fractions [1]: 18-28 fractions
Average Optical Density ([2]; 0.016 nM TCDD): 0.203
Average Optical Density ([2]; 0.031 nM TCDD): 0.228
Average Optical Density ([2]; 0.063 nM TCDD): 0.293
Average Optical Density ([2]; 0.125 nM TCDD): 0.414
Average Optical Density ([2]; 0.25 nM TCDD): 0.675
Average Optical Density ([2]; 0.5 nM TCDD): 1.036
Average Optical Density ([2]; 1 nM TCDD): 1.421
Average Optical Density ([2]; 2 nM TCDD): 1.803
Average Optical Density ([2]; 4 nM TCDD): 1.844
EC50 ([2]; amplified detection, FIG. 7): ~0.248 nM
